The record followed here is publication PMC4589238, “Acute Biphasic Effects of Ayahuasca” (PLoS ONE, 2015).

The term Cmax denotes the maximum level reached in the sampled fluid or tissue.

Where two headings read alike, the source gives them in different places.

Data set [1] can be described thus: Plasma concentrations of ayahuasca compounds and metabolites after oral ayahuasca (LC/MS/MS). The format is in vivo, human. On the set-up: AUC (mean ± sd): unit not given here. Conditions: for Detection in plasma samples: any plasma sample after oral ayahuasca; for Cmax / Tmax: both sexes, human, in vivo; for Cmax: po. The text has this: A sample of six liters of "Hoasca" was donated by the União do Vegetal (UDV) church in Brazil for the specific purpose of use in this study. Quantification of the main compounds in the brew was done with liquid chromatography-electrospray ionization-tandem mass spectrometry (LC/MS/MS). The screening included the following compounds: DMT, DMT‐N‐oxide (DMT-NO), N‐methyltryptamine (NMT), indoleacetic acid (IAA), 5‐hydroxy‐DMT (5-OH-DMT, or bufotenin), 5‐methoxy‐DMT (5-MeO-DMT), Harmine, Harmol, Harmaline, Harmalol, THH, 7‐hydroxy‐tetrahydroharmine (THH-OH), and 2‐methyl‐tetrahydro‐beta‐carboline (2-MTHBC). The original liquid volume was then reduced to 50% using a rotary evaporator to decrease the amount of liquid intake.
Blood was collected in sterile EDTA containing tubes. Ten blood samples (3 mL each) were collected every 25 minutes, starting 25 minutes before ayahuasca ingestion and ending 200 minutes after ingestion (in a total of ten samples for each individual). Blood was collected by a professional nurse, with a catheter that remained in place during the entire time of the study. Each tube was carefully and slowly turned upside-down three times and then stored at 0°C until all ten samples were collected. Blood samples were then centrifuged at 2000 rpm for 10 min at 4°C and the resulting plasma immediately collected and frozen at -80°C. The frozen plasma samples were stored at -80°C until shipped on dry ice to USA for analysis according to [31]. Compounds included in this screening were DMT, DMT-NO, NMT, IAA, 5-OH-DMT (bufotenin), 5-MeO-DMT, Harmine, Harmol, Harmaline, Harmalol, THH, THH-OH and 2-MTHBC.
Two volunteers opted out of blood collection, and data from one volunteer was discarded due to high hemolysis in the blood samples. Therefore data were available from 16 volunteers. Maximum plasma Concentration (Cmax), Time for maximum plasma concentration (Tmax) and area under the curve (AUC) of ten identified compounds are summarized in Table 2. […] No significant differences were found between men and women for any of the identified compounds in blood. […] There were no significant correlations between time to vomit and Cmax or AUC.

For data set [2], the system named is healthy volunteers. The experiment in a line: Association between plasma concentration and EEG spectral changes (generalized linear models). The format is in vivo, human. The method, then:
Relationships between plasma concentration of identified compounds and spectral changes in the six frequency bands evaluated were calculated by fitting generalized linear models (glmfit function in MATLAB) for each compound and frequency band. This analysis was followed by the non-parametric cluster based correction with 5000 permutations.
Results were considered statistically significant when p <0.05. Effect sizes are also reported, using Partial eta squared (partial η^2) for the main frequency clusters and Cohen’s d for the generalized linear models.

[3] abbreviates: left centro-parieto-occipital electrodes.
Where [4] appears, read: left fronto-temporal electrodes.
[5] abbreviates: plasma, 16 volunteers, oral ayahuasca.

As for `CN1CCc2c([nH]c3ccccc23)C1` [2-MTHBC, 2‐methyl‐tetrahydro‐beta‐carboline], in data set [1], the “Detection in plasma samples” value is reported as “never detected”.
As for `COc1ccc2[nH]cc(CCN(C)C)c2c1` [5-MeO-DMT, 5‐methoxy‐DMT], the “Detection in plasma samples” value in data set [1] is “never detected”.
Consider `CN(C)CCc1c[nH]c2ccc(O)cc12` [5-OH-DMT, 5‐hydroxy‐DMT], for which the “Detection in plasma samples” value in data set [1] is recorded as “never detected”.
As to `CN(C)CCc1c[nH]c2ccccc12` [DMT, N,N-dimethyltryptamine], the “Cohen's d, plasma concentration vs fast-gamma power increase” value in data set [2] (bilateral temporo-parieto-occipital electrodes) stood at 0.0309; in data set [2] (setting [4]) it was 0.0193; in data set [2] (right frontal electrodes) it was 0.1366. Also, the “Cohen's d, plasma concentration vs alpha band power decrease” value in data set [2] (setting [3]) worked out at 0.0822. Further, the “Cohen's d, plasma concentration vs slow-gamma power increase” value in data set [2] (setting [3]) amounted to 0.0125; in data set [2] (setting [4]), 0.0966; in data set [2] (right frontal electrodes), 0.0161. In addition, the “Cohen's d, plasma concentration vs beta power increase” value in data set [2] (left fronto-central electrodes (F7 and FC5)) was determined as 0.1131. In addition, the “Cohen's d, plasma concentration vs delta band increase” value is 0.2962 in data set [2] (left fronto-temporal electrodes (FT9, F7 and FT7)); 0.2100 in data set [2] (right frontal electrodes (AF4 and F2)). Moreover, the Cmax in data set [1] (plasma, 16 volunteers, oral ayahuasca, sampling to 200 min, read-out: Cmax (mean ± sd)) was 25.4 ± 16.8 ng/mL; in data set [1] (plasma, 16 volunteers, oral ayahuasca, read-out: Cmax (min—max)), 2.49 to 65.9 ng/mL. For the same compound, the Tmax in data set [1] (from ayahuasca ingestion, group average curve, read-out: Time of peak plasma level in the group average (converted)) is 1.25 h; in data set [1] (plasma, 16 volunteers, oral ayahuasca, read-out: Tmax (mean ± sd) (converted)) it was 2.21 h. Also, in data set [1] (setting [5]), the “AUC (min—max)” value lay within 9.52 to 219.10 g·min/mL.
With `C[N+](C)([O-])CCc1c[nH]c2ccccc12` [DMT-NO, DMT‐N‐oxide], in data set [2] (beta band), the “Clusters between plasma concentration and beta band” value is “No significant clusters”. Besides, the “Cohen's d, plasma concentration vs fast-gamma power increase” value in data set [2] (bilateral parieto-occipital electrodes) is reported as 0.0003; in data set [2] (left centro-frontal electrodes) it was 0.1917; in data set [2] (right centro-temporo-frontal electrodes), 0.0269. Also, in data set [2] (delta band), the “Clusters between plasma concentration and delta band” value is “not significant”. In addition, the “Cohen's d, plasma concentration vs slow-gamma power increase” value in data set [2] (left centro-parieto-occipital extending to right parietal electrodes) turned out to be 0.0593; in data set [2] (right centro-temporal electrodes (C6, T8 and TP8)), 0.0052; in data set [2] (right frontal electrodes), 0.0061. Further, the “Cohen's d, plasma concentration vs alpha band power decrease” value in data set [2] (left centro-parieto-occipital extending to some left frontal electrodes) came out at 0.0610; in data set [2] (right fronto-temporal electrodes (FC6, FT8 and FT10)) it was 0.1341. Also, the “AUC (mean ± sd)” value in data set [1] (setting [5]) stood at 60.37 ± 57.60. In data set [1] (setting [5]), the “AUC (min—max)” value fell in the range of 5.21 to 191.29 g·min/mL. The “Cmax (min—max)” value in data set [1] (setting [5]) is 1.58 to 40.60 ng/mL. For the same compound, the “Tmax (mean ± sd)” value in data set [1] (setting [5]) was 1.849 ± 0.6267 h. Moreover, in data set [1] (plasma, 16 volunteers, oral ayahuasca, sampling to 200 min), the “Cmax (mean ± sd)” value amounted to 14.42 ± 12.50 ng/mL.
